Data published in PubChem BioAssay AID1963849 (Molecular Pharmacology Branch, DTP, NCI, 2024).

System: 299254-011-R-J1-PDC complex spheroid viability
Assay: Anticancer human tumor 299254-011-R-J1-PDC patient-derived melanoma cell line growth inhibition [POLQ]
Settings: for IC50: curve of first compound; for viability, T/C: stronger effect = lower value
Procedure: Multicellular complex tumor spheroid response to Polymerase (POL) inhibitors (novobiocin, ART-558, RP6685) in combination with a variety of drugs and investigational agents in selected tumor cell lines
The POL inhibitors (novobiocin, ART-558, and RP6685) were evaluated both individually and in combination with standard of care and investigational anticancer small molecules within a complex spheroid model of solid tumors. . Complex spheroids include a stromal component modeled by human endothelial cells (HUVEC) and fibroblasts modeled by human mesenchymal stem cells (MSCs). The concentration ranges selected for each drug and investigational agent were based upon clinically achievable concentrations if the clinical Cmax of the agent was known.
Compounds. The drugs and investigational agents: novobiocin (NSC847541), ART-558 (NSC835418), RP-6685 (NSC848927), peposertib (NSC802822), ceralasertib (NSC780249), elimusertib (NSC800525), camonsertib (NSC841442), AZD-1390 (NSC803789), olaparib (NSC753686), talazoparib (NSC767125), rucaparib (NSC756644), sotorasib (NSC818433), MRTX-1133 (NSC836407), SN-38 (NSC673596), topotecan (NSC609699), epotoside (NSC141540), doxorubicin (NSC123127), gemcitabine (NSC613327), 5-fluorouracil (NSC19893), paclitaxel (NSC125973), vemurafenib (NSC761431), MSA-2 (NSC828583), SN-011 (NSC837082), adavosertib (NSC754352), prexasertib (NSC758257), carboplatin (NSC241240) and oxaliplatin (NSC266046), were obtained from the National Cancer Institute (NCI) Developmental Therapeutics Program Chemical Repository (21). The FDA-approved anticancer drug set is available from the Developmental Therapeutics Program at https://dtp.cancer.gov/organization/dscb/obtaining/. […] The stock solutions were prepared in dimethyl sulfoxide (DMSO, Sigma-Aldrich, St. Louis, MO, cat. D2650), except for the platinum compounds which were prepared in saline (Quality Biological, Gaithersburg, MD, cat. 114-055-101), at 800-fold the tested concentration and stored at -70 degrees C prior to their use. All drugs and investigational agents were tested over a range starting from a high concentration at or near the clinical Cmax and decreasing in half-log increments. If the clinical Cmax for an agent had not been determined, the highest concentration tested was 10 microM, except for SN-38, which was tested at a high concentration of 1 microM.
Cell Culture. All cells were maintained in an incubator at 37 degrees C and 5% CO2 with 95% humidity. The PDC lines were cultured according to standard operating procedures established by the NCI PDMR (https://pdmr.cancer.gov). Table 3 of the manuscript, lists the cell lines along with the number of the three cell types plated to form the mct-spheroids and media for tumor cell growth. After thawing, all PDC lines, except 997537-175-T-J1-PDC and 415267-285-R-J2-PDC, were cultured in Matrigel-coated flasks prepared with a working solution of 1X Ham's F-12 nutrient mix, without supplementation (Thermo Fisher Scientific, cat. 11765054), 100 U/mL penicillin-streptomycin (Thermo Fisher Scientific, cat. 15140122), and 2.5% Matrigel (Corning Inc., Corning, NY, cat. 354248) for the first three passages. The two PDC lines 997537-175-T-J1-PDC and 415267-285-R-J2-PDC were cultured on uncoated flasks. The 857933-349-R-J2-PDC line was cultured in 6C/Colon 1B media containing advanced DMEM/F-12 (Thermo Fisher Scientific, cat. 12634028), 10 mM HEPES (Thermo Fisher Scientific, cat. 15630080), 1X GlutaMAX supplement (Thermo Fisher Scientific, cat. 35050061), 0.1 mg/mL primocin (InvivoGen, San Diego, CA, cat. ant-pm-2), 10% defined fetal bovine serum, heat inactivated (HyClone Laboratories Inc., Logan, UT, cat. SH30070.03HI), 50% L-WRN conditioned media (ATCC, cat. CRL-3276), 1.25 mM N-Acetyl-L-cysteine (Sigma-Aldrich, cat. A9165), 10 mM nicotinamide (Sigma-Aldrich, cat. N0636), 1X B-27 supplement (Thermo Fisher Scientific, cat. 17504044), 1X N-2 supplement (Thermo Fisher Scientific, cat. […]

[1] = second compound 0.0316 µM, first compound 0.0316 µM
[2] = second compound 0.0316 µM, first compound 0.1 µM
[3] = second compound 0.0316 µM, first compound 0.316 µM
[4] = second compound 0.0316 µM, first compound 1 µM
[5] = second compound 0.0316 µM, first compound 3.16 µM
[6] = second compound 0.0316 µM, first compound 10 µM
[7] = second compound 0.1 µM, first compound 0.0316 µM
[8] = second compound 0.1 µM, first compound 0.1 µM
[9] = second compound 0.1 µM, first compound 0.316 µM
[10] = second compound 0.1 µM, first compound 1 µM
[11] = second compound 0.1 µM, first compound 3.16 µM
[12] = second compound 0.1 µM, first compound 10 µM
[13] = second compound 0.316 µM, first compound 0.0316 µM
[14] = second compound 0.316 µM, first compound 0.1 µM
[15] = second compound 0.316 µM, first compound 0.316 µM
[16] = second compound 0.316 µM, first compound 1 µM
[17] = second compound 0.316 µM, first compound 3.16 µM
[18] = second compound 0.316 µM, first compound 10 µM
[19] = second compound 1 µM, first compound 0.0316 µM
[20] = second compound 1 µM, first compound 0.1 µM
[21] = second compound 1 µM, first compound 0.316 µM
[22] = second compound 1 µM, first compound 1 µM
[23] = second compound 1 µM, first compound 3.16 µM
[24] = second compound 1 µM, first compound 10 µM
[25] = second compound 3.16 µM, first compound 0.0316 µM
[26] = second compound 3.16 µM, first compound 0.1 µM
[27] = second compound 3.16 µM, first compound 0.316 µM
[28] = second compound 3.16 µM, first compound 1 µM
[29] = second compound 3.16 µM, first compound 3.16 µM
[30] = second compound 3.16 µM, first compound 10 µM
[31] = second compound 10 µM, first compound 0.0316 µM
[32] = second compound 10 µM, first compound 0.1 µM
[33] = second compound 10 µM, first compound 0.316 µM
[34] = second compound 10 µM, first compound 1 µM
[35] = second compound 10 µM, first compound 3.16 µM
[36] = second compound 10 µM, first compound 10 µM
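Also: spheroids exposed to drugs for one week before measurement.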
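For viability, T/C in this document: percent viability relative to DMSO vehicle control taken as 100%.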

In the case of O=c1[nH]cc(F)c(=O)[nH]1 + Cc1cccc(N(C)C(=O)C2C(O)CCN2c2nc(C)cc(C(F)(F)F)c2C#N)c1, the IC50 (second compound 0.0316 µM) is reported as > 10 µM, the IC50 (second compound 0.1 µM) is reported as > 10 µM and the IC50 (second compound 0.316 µM) is reported as > 10 µM. The IC50 (second compound 1 µM) was > 10 µM, the IC50 (second compound 3.16 µM) was > 10 µM and the IC50 (second compound 10 µM) was > 10 µM. The viability, T/C [1] was 115%, the viability, T/C [2] was 88% and the viability, T/C [3] was 105%. For the same molecule, the viability, T/C [4] was 97.3%, the viability, T/C [5] was 76.1% and the viability, T/C [6] was 73%. The viability, T/C [7] was 105%, the viability, T/C [8] was 92.4% and the viability, T/C [9] was 96%. For the same molecule, the viability, T/C [10] was 94.8%, the viability, T/C [11] was 88.1% and the viability, T/C [12] was 81.2%. For the same molecule, the viability, T/C [13] was 111%, the viability, T/C [14] was 118% and the viability, T/C [15] was 106%. For the same molecule, the viability, T/C [16] was 99.3%, the viability, T/C [17] was 98.9% and the viability, T/C [18] was 67.6%. For the same molecule, the viability, T/C [19] was 112%, the viability, T/C [20] was 99.7% and the viability, T/C [21] was 98.2%. It also gave a viability, T/C [22] of 92.3%, a viability, T/C [23] of 88% and a viability, T/C [24] of 68.1%. It also gave a viability, T/C [25] of 114%, a viability, T/C [26] of 103% and a viability, T/C [27] of 89.1%. The viability, T/C [28] was 114%, the viability, T/C [29] was 90.3% and the viability, T/C [30] was 65.2%. The viability, T/C [31] was 103%, the viability, T/C [32] was 98% and the viability, T/C [33] was 93.4%. For the same molecule, the viability, T/C [34] was 87%, the viability, T/C [35] was 80.9% and the viability, T/C [36] was 69.3%.

For C=CC(=O)N1CCN(c2nc(=O)n(-c3c(C)ccnc3C(C)C)c3nc(-c4c(O)cccc4F)c(F)cc23)C(C)C1 (centres undefined) + Nc1ccc(C#CCN(C(=O)Cc2ncc(C(F)(F)F)cc2C(F)(F)F)c2ccc(F)cc2)nn1, the IC50 (second compound 0.0316 µM) was > 10 µM, the IC50 (second compound 0.1 µM) was > 10 µM and the IC50 (second compound 0.316 µM) was > 10 µM. For the same molecule, the IC50 (second compound 1 µM) was > 10 µM, the IC50 (second compound 3.16 µM) was > 10 µM and the IC50 (second compound 10 µM) was > 10 µM. The viability, T/C [1] was 77.4%, the viability, T/C [2] was 83.6% and the viability, T/C [3] was 80%. For the same molecule, the viability, T/C [4] was 84.9%, the viability, T/C [5] was 88.7% and the viability, T/C [6] was 70.2%. The viability, T/C [7] was 86.9%, the viability, T/C [8] was 75.2% and the viability, T/C [9] was 80.7%. The viability, T/C [10] was 86.2%, the viability, T/C [11] was 81.7% and the viability, T/C [12] was 76.9%. The viability, T/C [13] was 93.5%, the viability, T/C [14] was 76.9% and the viability, T/C [15] was 66.2%. For the same molecule, the viability, T/C [16] was 82.2%, the viability, T/C [17] was 77.9% and the viability, T/C [18] was 78.4%. For the same molecule, the viability, T/C [19] was 96.2%, the viability, T/C [20] was 78.1% and the viability, T/C [21] was 81.6%. For the same molecule, the viability, T/C [22] was 79.1%, the viability, T/C [23] was 92.7% and the viability, T/C [24] was 79%. For the same molecule, the viability, T/C [25] was 83.1%, the viability, T/C [26] was 80% and the viability, T/C [27] was 74.6%. For the same molecule, the viability, T/C [28] was 82.2%, the viability, T/C [29] was 85.9% and the viability, T/C [30] was 64.5%. For the same molecule, the viability, T/C [31] was 90.3%, the viability, T/C [32] was 80.8% and the viability, T/C [33] was 73.5%. The viability, T/C [34] was 79.1%, the viability, T/C [35] was 79.7% and the viability, T/C [36] was 77.4%.
